Patent US20250241918A1, “NOVEL USE OF PYRAZOLOPYRIMIDINE COMPOUND” (HEFEI YOUYUAN PHARMACEUTICAL CO., LTD., priority 2022, published 2025)

What was measured:
[1] = tested on: rat colitis model induced by rectal administration of DNBS; test: Rat colitis induced by enema administration of DNBS; type: in vivo, Wister rats; conditions: 20 mg/kg p.o. QD, day -2 to 6 (G6); DNBS colitis rats; comparable to positive control group
Protocol: Sixty male Wister rats (purchased from Beijing Vital River Laboratory Animal Technology Co., Ltd.) were randomly divided into six groups, with 10 rats in each group: G1 was the blank control group; G2-G6 were the rat colitis model groups induced by rectal administration of DNBS solution (Tokyo Chemical Industry Co., Ltd., 50 mg/mL DNBS dissolved in 30% ethanol). Various animals were administered with drugs starting from two days before colitis induced by DNBS, and the administration schedules were shown in Table 3 below.
The induction of colitis was performed as follows. The rats were fasted for 40 h before administration, and were subcutaneously injected with 5% glucose saline ([…], once a day) during the fast. On day 0, the fasted rats were anesthetized using Zoletil (intraperitoneal injection, 25 mg/kg, purchased from a pharmacy) and xylazine (intraperitoneal injection, 5 mg/kg, purchased from Sigma-Aldrich). In G2-G6 model groups, colitis was induced in rats by inserting a catheter from the anus into the left colic flexure (about 8 cm away from the anus) and administrating DNBS (0.5 mL per rat) through enema administration. The G1 blank control group was administered with 30% ethanol via enema using the same method. In order to avoid the reflux of enema fluid, animals with enema administration were kept in a head-down position for 15 mins, and then maintained in the Trendelenburg position until waking up.
During the administration period, the body weights of rats in all groups were recorded every day. Six days later, the animals were euthanized and the colorectal tissues were collected. The ulcer area of the colorectum, as well as the degrees of adhesion, intestinal obstruction, ulceration, and intestinal wall thickening, were measured. The pathological condition of the intestinal wall was evaluated. The conditions of colon damage was evaluated according to Table 4.
If the ulcer is irregular in shape, it can be considered as a rectangle, and then the length and width were measured to evaluate the ulcer area. Ulcer area (cm^2)=ulcer length (cm)×ulcer width (cm).

[2] = tested on: adjuvant-induced arthritis model rats; test: Adjuvant-induced rat arthritis model; type: in vivo, Sprague-Dawley (SD) rats; conditions: Day 21
Protocol: Experimental animals: Fifty male Sprague-Dawley (SD) rats weighing 180+20 g (provided by Qinglongshan Animal Breeding Center, license number SCXK(Su) 2017-0001) were fed with conventional pellet food (Jiangsu Xietong Biology Co., Ltd.) and housed in a clean animal facility. The rats were housed under a 12 h dark/12 h light cycle with free access to food and water. The temperature was maintained between 20° C. to 26° C., while the relative humidity ranged from 40% to 70%. […] Each group of 10 animals was administered QD for a continuous period of 21 days. […]
Paw swelling measurement: 1) the volume of right hind paw for the rats in each group was measured and recorded using a plethysmometer for paw volume before administration, which was used as the baseline value before modeling; 2) the volume of the rats' paw was measured at the end of administration (Day 21), which was used as the secondary value; 3) the swelling volume of the rats' paw was calculated according to the following formula: […]
The arthritis index scores were determined as following: at the end of administration (Day 21), rats in each group were evaluated according to the scoring standard described in Table 5. […]

CN(C)CC(=O)N1CCC[C@@H](n2nc(-c3ccc(Oc4ccccc4)cc3)c3c(N)ncnc32)C1 [Compound 22, (R)-1-(3-(4-amino-(4-phenoxyphenyl)-1H-pyrazolo[3,4-d]pyrimidin-1-yl)piperidin-1-yl)-2-(dimethylamino) ethanone]
animal body weights vs G2 model group [1]: significantly lower than those for the G2 group | scores for the degrees of adhesion, intestinal obstruction, ulceration, intestinal wall thickening vs G2 model group [1]: significantly lower than those for the G2 group | ulcer areas of colorectal tissues vs G2 model group [1]: significantly lower than those for the G2 group | paw swelling ([2]; 10 mg/kg orally QD): significantly alleviated paw swelling | paw swelling ([2]; 30 mg/kg orally QD): significantly alleviated paw swelling
